Measured values as given in patent US20050222146A1, “N-substituted-n-sulfonylaminocyclopropane compounds and pharmaceutical use thereof” (priority 2003, published 2005).

Columns and labels:
MMP-1 = target: T1, MMP-1 (Homo sapiens, UniProt P03956); assay: MMP-1 inhibitory action, Type I collagen Activity Measurement kit (FITC-labeled collagen type I); format: biochemical; details: 37° C. for 3 hr, read-out: Experimental Example 2 IC50 MMP1
T1 sequence (P03956 100-469): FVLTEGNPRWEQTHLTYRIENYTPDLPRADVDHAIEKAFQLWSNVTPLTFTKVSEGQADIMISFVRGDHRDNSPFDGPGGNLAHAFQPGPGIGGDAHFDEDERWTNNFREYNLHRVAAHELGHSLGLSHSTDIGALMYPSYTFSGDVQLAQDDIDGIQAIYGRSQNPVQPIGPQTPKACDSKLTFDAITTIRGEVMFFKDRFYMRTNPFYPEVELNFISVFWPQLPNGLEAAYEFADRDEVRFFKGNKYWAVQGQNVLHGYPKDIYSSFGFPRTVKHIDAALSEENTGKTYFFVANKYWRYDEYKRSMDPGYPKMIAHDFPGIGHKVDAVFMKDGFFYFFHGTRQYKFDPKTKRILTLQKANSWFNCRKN
Description: For MMP-1 Assay, Type I collagen Activity Measurement kit (YAGAI YU-72013) modified to a 96-well plate format was used.
The principle of the kit is based on the property of collagen that becomes soluble in ethanol after being cleaved by MMP-1.
(§1) The enzyme and substrate were diluted with Tris-HCl buffer, and test compounds were diluted with dimethyl sulfoxide (DMSO).
The enzyme and test compounds were added into 96-well plate, and fluorescein isothiocianate (FITC)-labeled collagen type I was added as a substrate and the mixture was incubated at 37° C. for 3 hr.
The reaction was terminated by addition of Tris-HCl buffer containing ethanol. After centrifugation, the supernatant containing denatured substrate was transferred to another 96-well plate. The collagenase activity of MMP-1 was determined by measuring FITC fluorescence intensity (excitation wavelength 485 nm, emission wavelength 530 nm) of each well. The inhibitory activity of the compound in each well (%) was calculated based on the values of enzyme-free well and inhibitor-free well. The inhibitory activity of the compound was represented as IC50 (μM).

aggrecanase-1 = target: T2, aggrecanase-1 (Homo sapiens, UniProt O75173); assay: Aggrecanase-1 inhibitory action, Particle Assay (GAG release from aggrecan-containing polyacrylamide particles); format: biochemical; details: 37° C. for 15 hr, read-out: Experimental Example 1 IC50 AG1
T2 sequence (O75173 213-837): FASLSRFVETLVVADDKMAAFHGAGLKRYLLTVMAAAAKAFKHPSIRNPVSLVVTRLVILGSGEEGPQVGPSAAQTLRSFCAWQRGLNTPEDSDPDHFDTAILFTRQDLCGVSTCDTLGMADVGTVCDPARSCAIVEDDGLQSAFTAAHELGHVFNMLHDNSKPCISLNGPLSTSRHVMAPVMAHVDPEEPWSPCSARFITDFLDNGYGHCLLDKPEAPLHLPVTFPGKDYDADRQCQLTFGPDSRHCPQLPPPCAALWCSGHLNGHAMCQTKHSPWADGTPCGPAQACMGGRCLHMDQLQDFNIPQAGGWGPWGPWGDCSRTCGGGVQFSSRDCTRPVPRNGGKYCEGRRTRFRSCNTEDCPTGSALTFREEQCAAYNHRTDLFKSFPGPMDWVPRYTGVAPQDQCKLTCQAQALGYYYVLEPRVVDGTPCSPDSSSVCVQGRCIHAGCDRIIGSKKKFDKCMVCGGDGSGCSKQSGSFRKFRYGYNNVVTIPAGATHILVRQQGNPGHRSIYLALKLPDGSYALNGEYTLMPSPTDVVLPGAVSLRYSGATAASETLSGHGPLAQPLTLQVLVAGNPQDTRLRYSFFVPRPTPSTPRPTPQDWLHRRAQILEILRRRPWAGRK
Description: Aggrecanase-1 Inhibitory Action
Particle Assay was used for determination of aggrecanase activity.
as §1
Test compounds and the enzyme were added into 96-well plate, and polyacrylamide particles containing aggrecan were added as a substrate and the mixture was incubated at 37° C. for 15 hr.
After incubation; the supernatant was transferred to another plate, and mixed with 1,9-dimethylmethylene blue. The absorbance at 595 nm was measured to quantify the amount of glycosaminoglycan (GAG) released in the reaction supernatant. Whale chondroitin sulfate was used as the standard of GAG. The inhibitory activity of the compound in each well (%) was calculated based on the values of enzyme-free well and inhibitor-free well. The inhibitory activity of the compound was represented as IC50 (μM).

IC50 (MMP-1)	IC50 (aggrecanase-1)	Compound
≥ 10 µM	< 1 µM	O=C(O)[C@@]1(N(Cc2cc(=O)[nH][nH]2)S(=O)(=O)c2ccc(-c3ccc(Cl)cc3)cc2)C[C@H]1c1ccccc1 (relative stereo) [Example 1-5, (1R*,2S*)-1-[(4′-chloro-biphenyl-4-sulfonyl)-(5-oxo-2,5-dihydro-1H-pyrazol-3-ylmethyl)-amino]-2-phenyl-cyclopropanecarboxylic acid]
≥ 10 µM	< 1 µM	CS(=O)(=O)NCCN([C@]1(C(=O)O)C[C@H]1c1ccccc1)S(=O)(=O)c1ccc(-c2ccc(Cl)cc2)cc1 (relative stereo) [Example 1-7, (1R*,2S*)-1-[(4′-chloro-biphenyl-4-sulfonyl)-(2-methanesulfonylamino-ethyl)-amino]-2-phenyl-cyclopropanecarboxylic acid]
≥ 10 µM	< 1 µM	CC(C)OC(=O)NS(=O)(=O)NCCN([C@]1(C(=O)O)C[C@H]1c1ccccc1)S(=O)(=O)c1ccc(-c2ccc(Cl)cc2)cc1 (relative stereo) [Example 1-9, (1R*, 2S*)-1-[(4′-chloro-biphenyl-4-sulfonyl)-(2-isopropoxycarbonylaminosulfonylamino-ethyl)-amino]-2-phenyl-cyclopropanecarboxylic acid]
≥ 10 µM	< 0.1 µM	O=C(O)c1ccc(CN([C@]2(C(=O)O)C[C@H]2c2ccccc2)S(=O)(=O)c2ccc(-c3ccc(Cl)cc3)cc2)cc1 (relative stereo) [Example 1-10, (1R*,2S*)-4-{[(1-carboxy-2-phenyl-cyclopropyl)-(4′-chloro-biphenyl-4-sulfonyl)-amino]-methyl}-benzoic acid]
≥ 10 µM	< 1 µM	O=C(O)CN([C@]1(C(=O)O)C[C@H]1c1ccc(Cl)cc1)S(=O)(=O)c1ccc(-c2ccc(Cl)cc2)cc1 (relative stereo) [Example 1-11, (1R*,2S*)-1-[carboxymethyl-(4′-chloro-biphenyl-4-sulfonyl)-amino]-2-(4-chloro-phenyl)-cyclopropanecarboxylic acid]
≥ 10 µM	< 1 µM	O=C(O)CN([C@]1(C(=O)O)C[C@H]1c1cccc(Cl)c1)S(=O)(=O)c1ccc(-c2ccc(Cl)cc2)cc1 (relative stereo) [Example 1-12, (1R*,2S*)-1-[carboxymethyl-(4′-chloro-biphenyl-4-sulfonyl)-amino]-2-(3-chloro-phenyl)-cyclopropanecarboxylic acid]
≥ 10 µM	< 1 µM	O=C(O)CN([C@]1(C(=O)O)C[C@H]1c1ccccc1Cl)S(=O)(=O)c1ccc(-c2ccc(Cl)cc2)cc1 (relative stereo) [Example 1-13, (1R*,2S*)-1-[carboxymethyl-(4′-chloro-biphenyl-4-sulfonyl)-amino]-2-(2-chloro-phenyl)-cyclopropanecarboxylic acid]
≥ 10 µM	< 1 µM	O=C(O)[C@@]1(N(Cc2nn[nH]n2)S(=O)(=O)c2ccc(-c3ccc(Cl)cc3)cc2)C[C@H]1c1ccccc1 (relative stereo) [Example 1-15, (1R*,2S*)-1-[(4′-chloro-biphenyl-4-sulfonyl)-(2H-tetrazol-5-ylmethyl)-amino]-2-phenyl-cyclopropanecarboxylic acid]
≥ 10 µM	< 1 µM	O=C(O)[C@@]1(N(Cc2cccc(O)c2)S(=O)(=O)c2ccc(-c3ccc(Cl)cc3)cc2)C[C@H]1c1ccccc1 (relative stereo) [Example 1-17, (1R*,2S*)-1-[(4′-chloro-biphenyl-4-sulfonyl)-(3-hydroxy-benzyl)-amino]-2-phenyl-cyclopropanecarboxylic acid]
≥ 10 µM	< 1 µM	Cc1ccc([C@@H]2C[C@@]2(C(=O)O)N(CC(=O)O)S(=O)(=O)c2ccc(-c3ccc(Cl)cc3)cc2)cc1 (relative stereo) [Example 1-18, (1R*,2S*)-1-[carboxymethyl-(4′-chloro-biphenyl-4-sulfonyl)-amino]-2-(4-methyl-phenyl)-cyclopropanecarboxylic acid]
≥ 10 µM	< 1 µM	Cc1ccccc1[C@@H]1C[C@@]1(C(=O)O)N(CC(=O)O)S(=O)(=O)c1ccc(-c2ccc(Cl)cc2)cc1 (relative stereo) [Example 1-19, (1R*,2S*)-1-[carboxymethyl-(4′-chloro-biphenyl-4-sulfonyl)-amino]-2-(2-methyl-phenyl)-cyclopropanecarboxylic acid]
≥ 10 µM	< 1 µM	Cc1cccc([C@@H]2C[C@@]2(C(=O)O)N(CC(=O)O)S(=O)(=O)c2ccc(-c3ccc(Cl)cc3)cc2)c1 (relative stereo) [Example 1-20, (1R*,2S*)-1-[carboxymethyl-(4′-chloro-biphenyl-4-sulfonyl)-amino]-2-(3-methyl-phenyl)-cyclopropanecarboxylic acid]
≥ 10 µM	< 1 µM	COc1ccccc1[C@@H]1C[C@@]1(C(=O)O)N(CC(=O)O)S(=O)(=O)c1ccc(-c2ccc(Cl)cc2)cc1 (relative stereo) [Example 1-22, (1R*,2S*)-1-[carboxymethyl-(4′-chloro-biphenyl-4-sulfonyl)-amino]-2-(2-methoxy-phenyl)-cyclopropanecarboxylic acid]
≥ 10 µM	< 1 µM	O=C(O)CN([C@]1(C(=O)O)C[C@H]1c1ccc(Cl)c(Cl)c1)S(=O)(=O)c1ccc(-c2ccc(Cl)cc2)cc1 (relative stereo) [Example 1-23, (1R*,2S*)-1-[carboxymethyl-(4′-chloro-biphenyl-4-sulfonyl)-amino]-2-(3,4-dichloro-phenyl)-cyclopropanecarboxylic acid]
≥ 10 µM	< 1 µM	O=C(O)CN([C@]1(C(=O)O)C[C@H]1c1cc(Cl)ccc1Cl)S(=O)(=O)c1ccc(-c2ccc(Cl)cc2)cc1 (relative stereo) [Example 1-24, (1R*,2S*)-1-[carboxymethyl-(4′-chloro-biphenyl-4-sulfonyl)-amino]-2-(2,5-dichloro-phenyl)-cyclopropanecarboxylic acid]
≥ 10 µM	< 0.1 µM	O=C(O)CN([C@]1(C(=O)O)C[C@H]1c1cccc(Oc2ccccc2)c1)S(=O)(=O)c1ccc(-c2ccc(Cl)cc2)cc1 (relative stereo) [Example 1-25, (1R*,2S*)-1-[carboxymethyl-(4′-chloro-biphenyl-4-sulfonyl)-amino]-2-(3-phenoxy-phenyl)-cyclopropanecarboxylic acid]
≥ 10 µM	< 1 µM	O=C(O)CN([C@]1(C(=O)O)C[C@H]1c1ccccc1-c1ccccc1)S(=O)(=O)c1ccc(-c2ccc(Cl)cc2)cc1 (relative stereo) [Example 1-26, (1R*,2S*)-2-biphenyl-2-yl-1-[carboxymethyl-(4′-chloro-biphenyl-4-sulfonyl)-amino]-cyclopropanecarboxylic acid]
≥ 10 µM	< 0.1 µM	N#Cc1cccc([C@@H]2C[C@@]2(C(=O)O)N(CC(=O)O)S(=O)(=O)c2ccc(-c3ccc(Cl)cc3)cc2)c1 (relative stereo) [Example 1-27, (1R*,2S*)-1-[carboxymethyl-(4′-chloro-biphenyl-4-sulfonyl)-amino]-2-(3-cyano-phenyl)-cyclopropanecarboxylic acid]

Compound	IC50 (MMP-1)	IC50 (aggrecanase-1)
CC(C)(C)OC(=O)NCCN([C@]1(C(=O)O)C[C@H]1c1ccccc1)S(=O)(=O)c1ccc(-c2ccc(Cl)cc2)cc1 (relative stereo) [Example 1-4, (1R*,2S*)-1-[(2-tert-butoxycarbonylamino-ethyl)-(4′-chloro-biphenyl-4-sulfonyl)-amino]-2-phenyl-cyclopropanecarboxylic acid]	≥ 10 µM	< 1 µM
